The values that follow come from PMC8780263, “Green by Design: Convergent Synthesis, Computational Analyses, and Activity Evaluation of New FXa Inhibitors Bearing Peptide Triazole Linking Units” (Pharmaceutics, 2021).

For one series, the system named is HEK293 cells. The series is described as follows: Cell viability analysis, CCK-8 method, HEK293. Type of series: cell-based, human. To be noted: 48 h; 10 mM, 100 μM, 10 μM, 100 nM, 10 nM. The method, then: (§1) The human cell lines (HEK293 and HeLa) applied in the cell viability assays were purchased from ATCC (Manassas, VA, USA). HEK293 and HeLa cell lines were cultivated in Dulbecco’s modified Eagle medium, supplemented with 10% fetal bovine serum, 100 units/mL of penicillin and […] of streptomycin and kept at 37 °C in a humidified atmosphere containing 5% CO2. A 100-μL aliquot of adherent cells was used to seed 96-well cell culture plates at 25,000 cells/well and allowed to adhere for 16 h prior to compound addition. Cells were treated with each compound in DMEM containing 10% FBS for 48 h. Subsequently, 10 μL of Cell Counting Kit-8 reagent (CCK-8; Sigma-Aldrich, Merck KGaA, Darmstadt Germany) was added into each well and incubated for 4 h at 37 °C in a humidified atmosphere containing 5% CO2. The absorbance measurement detected the cell viability at 450 nm in a Synergy H1 microplate reader (Biotek Instruments, Winooski, VT, USA). All experiments were performed in triplicate.
(§2) Cell viability assays were performed with HeLa and HEK293 cells using the CCK-8 method. Compounds 8a, 8k, 8l and 8p were assayed with decreasing concentrations: 10 mM (1), 100 μM (2), 10 μM (3), 100 nM (4) and 10 nM (5) (Figure 6).
(§3) Figure 6 Effect of the selected compounds on cell viability using the CCK-8 assay in (A) HeLa and (B) HEK93 cell lines. Concentrations used were 10 mM (1), 100 μM (2), 10 μM (3), 100 nM (4), and 10 nM (5). The upper and lower lines define ± 2 SD limits from the average value of control wells treated only with the vehicle (DMSO 2%). All values are means ± SD (n = 3). SD: standard deviation.
On the technique in general: Tetrazolium assays rely on reduction of a dye to a coloured formazan, in cell work by metabolically active cells.

A further series deals with FXa enzyme (Bos taurus, UniProt P00743). The experiment in a line: FXa in vitro inhibition assay (fluorometric SensoLyte Factor Xa Assay Kit). To be noted: for inhibition at 100 µM: read-out: %Inhibition FXa, inhibition percentage at 100 μM; for %Inhibition FXa: inhibition percentage at 100 μM.
In another series the test system is HeLa cells. The experiment in a line: Cell viability analysis, CCK-8 method, HeLa. Type of series: cell-based, human. To be noted: 48 h; 10 mM, 100 μM, 10 μM, 100 nM, 10 nM. The method, then: as §1, §2, §3

Read-outs that look alike come from different tables or passages of the source.

Chain of FXa enzyme (P00743 234-492 limits assumed): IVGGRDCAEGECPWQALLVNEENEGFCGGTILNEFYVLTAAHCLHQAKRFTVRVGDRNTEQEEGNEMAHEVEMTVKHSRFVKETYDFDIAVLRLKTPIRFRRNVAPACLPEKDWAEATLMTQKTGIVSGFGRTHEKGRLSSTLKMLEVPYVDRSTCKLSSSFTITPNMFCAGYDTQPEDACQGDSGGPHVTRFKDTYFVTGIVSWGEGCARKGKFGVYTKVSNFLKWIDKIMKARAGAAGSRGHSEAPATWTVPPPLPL
Chain of FXa enzyme (P00743 41-180 partner limits assumed): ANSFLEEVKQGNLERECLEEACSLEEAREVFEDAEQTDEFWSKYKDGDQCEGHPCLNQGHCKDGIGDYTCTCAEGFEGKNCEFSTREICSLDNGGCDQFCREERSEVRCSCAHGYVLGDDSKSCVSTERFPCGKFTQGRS
Method for FXa enzyme: The FXa inhibition capacities of the newly synthesized molecules were evaluated using the SensoLyte® 520 Factor Xa Assay Kit.

For `O=C(Cn1cc(-c2ccccc2)nn1)Nc1ccc(N2CCCCC2=O)c(F)c1` [Compound 8a], in the series with HEK293 cells, the “cell mortality in HEK-293 cells (cell viability, CCK-8)” value (“cell mortality in HEK-293 cells” for short) was “did not show any cell mortality”. At FXa enzyme, half-maximal inhibition (IC50) required 41.2 ± 1.2 µM and the inhibition at 100 µM was at least 50%. Further, in the series on HeLa cells, the “toxicity in HeLa cells (cell viability, CCK-8)” value (shortened to “toxicity in HeLa cells”) is given as “no signs of toxicity”.
In the case of `CC(C)(C)OC(=O)N1CCN(c2ccc(NC(=O)Cn3cc(-c4ccccc4)nn3)cc2F)C(=O)C1` [Compound 8b], the melting point lay within 195 to 196 °C. Besides, on FXa enzyme, the inhibition at 100 µM was determined as 24%.
On the same counts, the results for `O=C(Cn1cc(-c2ccccc2)nn1)Nc1ccc(N2CCOCC2=O)c(F)c1` [Compound 8c] are 254 to 255 °C and 17%.
On the same counts, the results for `O=C(Cn1cc(-c2ccccc2)nn1)Nc1ccc(N2CCSCC2=O)c(F)c1` [Compound 8d] are 276 to 277 °C and 33%.
`O=C(Cn1cc(-c2ccc(F)cc2)nn1)Nc1ccc(N2CCCCC2=O)c(F)c1` [Compound 8e]: on FXa enzyme, the inhibition at 100 µM came out at 17%.
`CC(C)(C)OC(=O)N1CCN(c2ccc(NC(=O)Cn3cc(-c4ccc(F)cc4)nn3)cc2F)C(=O)C1` [Compound 8f]: the “%Inhibition FXa” value on FXa enzyme came to 44%.
As to `O=C(Cn1cc(-c2ccc(F)cc2)nn1)Nc1ccc(N2CCOCC2=O)c(F)c1` [Compound 8g], the melting point was in the range of 273 to 274 °C. The inhibition at 100 µM at FXa enzyme came to 36%.
For `O=C(Cn1cc(-c2ccc(F)cc2)nn1)Nc1ccc(N2CCSCC2=O)c(F)c1` [Compound 8h], in that order: 266 to 267 °C and 25%.
On the same counts, the results for `O=C(Cn1cc(-c2ccc(Cl)cc2)nn1)Nc1ccc(N2CCCCC2=O)c(F)c1` [Compound 8i] are 302 to 303 °C and 29%.
As to `CC(C)(C)OC(=O)N1CCN(c2ccc(NC(=O)Cn3cc(-c4ccc(Cl)cc4)nn3)cc2F)C(=O)C1` [Compound 8j], the “%Inhibition FXa” value at FXa enzyme came to 23%.
In the case of `O=C(Cn1cc(-c2ccc(Cl)cc2)nn1)Nc1ccc(N2CCOCC2=O)c(F)c1` [Compound 8k], the “cell mortality in HEK-293 cells” value in the series with HEK293 cells is reported as “did not show any cell mortality”. Besides, on FXa enzyme, the IC50 was found to be 76.2 ± 16.9 µM and the inhibition at 100 µM is at least 50%. In addition, the “toxicity in HeLa cells” value in the series with HeLa cells is given as “no signs of toxicity”.
`O=C(Cn1cc(-c2ccc(Cl)cc2)nn1)Nc1ccc(N2CCSCC2=O)c(F)c1` [Compound 8l]: the “cell mortality in HEK-293 cells” value in the series with HEK293 cells was “did not show any cell mortality”. At FXa enzyme, the concentration for half-maximal inhibition (IC50) turned out to be 52.9 ± 5.5 µM and the inhibition at 100 µM was at least 50%. Also, in the series with HeLa cells, the “toxicity in HeLa cells” value is “no signs of toxicity”.
Compound `O=C(Cn1cc(-c2ccc(Br)cc2)nn1)Nc1ccc(N2CCCCC2=O)c(F)c1` [Compound 8m] returned a melting point of 300 to 301 °C. The inhibition at 100 µM on FXa enzyme amounted to 29%.
`CC(C)(C)OC(=O)N1CCN(c2ccc(NC(=O)Cn3cc(-c4ccc(Br)cc4)nn3)cc2F)C(=O)C1` [Compound 8n]: the “%Inhibition FXa” value at FXa enzyme is given as 22%.
Take `O=C(Cn1cc(-c2ccc(Br)cc2)nn1)Nc1ccc(N2CCOCC2=O)c(F)c1` [Compound 8o]: the melting point lay within 302 to 303 °C. On FXa enzyme, the inhibition at 100 µM is 37%.
In the case of `O=C(Cn1cc(-c2ccc(Br)cc2)nn1)Nc1ccc(N2CCSCC2=O)c(F)c1` [Compound 8p], the “cell mortality in HEK-293 cells” value with HEK293 cells is on record as “did not show any cell mortality”. At FXa enzyme, the IC50 came out at 17.2 ± 0.8 µM and the inhibition at 100 µM is at least 50%. The “toxicity in HeLa cells” value in the series with HeLa cells was “no signs of toxicity”.
In turn, `Cc1ccc(-c2cn(CC(=O)Nc3ccc(N4CCCCC4=O)c(F)c3)nn2)cc1` [Compound 8q] registered a melting point of 301 to 302 °C. Besides, the inhibition at 100 µM at FXa enzyme came out at 21%.
On the same counts, the results for `Cc1ccc(-c2cn(CC(=O)Nc3ccc(N4CCN(C(=O)OC(C)(C)C)CC4=O)c(F)c3)nn2)cc1` [Compound 8r] are 204 to 205 °C and 27%.
On the same counts, the results for `Cc1ccc(-c2cn(CC(=O)Nc3ccc(N4CCOCC4=O)c(F)c3)nn2)cc1` [Compound 8s] are 282 to 283 °C and 37%.
The compound `Cc1ccc(-c2cn(CC(=O)Nc3ccc(N4CCSCC4=O)c(F)c3)nn2)cc1` [Compound 8t] came in with a melting point of 285 to 286 °C. The inhibition at 100 µM on FXa enzyme was 31%.
On to `CCOC(=O)c1ccc(OC(=O)CCCCCN=C(N)N)cc1.CS(=O)(=O)O` [Gabexate mesylate, reference compound], for which, on FXa enzyme (FXa, dilution series 1 nM to 100 μM, triplicates), 0.34 ± 0.1 µM corresponded to half-maximal inhibition (IC50). Moreover, the “%Inhibition FXa” value at FXa enzyme is recorded as 93%.

A word on the IC50: it is the point on the concentration scale where inhibition reaches its midpoint. High values mean weaker potency in that assay, low ones greater potency in that assay. For orientation: inhibition means how much of the control response was suppressed. The term melting point denotes the temperature, or range, at which the solid turns liquid.
